The values below come from ChEMBL document CHEMBL5233240, “hERG toxicity assessment: Useful guidelines for drug design” (Eur J Med Chem, 2020).

In this experiment the target is Voltage-gated inwardly rectifying potassium channel KCNH2 (Homo sapiens, UniProt Q12809). In words: Inhibition of human ERG. The class given is toxicity.
Chain of Voltage-gated inwardly rectifying potassium channel KCNH2 (Q12809 whole entry): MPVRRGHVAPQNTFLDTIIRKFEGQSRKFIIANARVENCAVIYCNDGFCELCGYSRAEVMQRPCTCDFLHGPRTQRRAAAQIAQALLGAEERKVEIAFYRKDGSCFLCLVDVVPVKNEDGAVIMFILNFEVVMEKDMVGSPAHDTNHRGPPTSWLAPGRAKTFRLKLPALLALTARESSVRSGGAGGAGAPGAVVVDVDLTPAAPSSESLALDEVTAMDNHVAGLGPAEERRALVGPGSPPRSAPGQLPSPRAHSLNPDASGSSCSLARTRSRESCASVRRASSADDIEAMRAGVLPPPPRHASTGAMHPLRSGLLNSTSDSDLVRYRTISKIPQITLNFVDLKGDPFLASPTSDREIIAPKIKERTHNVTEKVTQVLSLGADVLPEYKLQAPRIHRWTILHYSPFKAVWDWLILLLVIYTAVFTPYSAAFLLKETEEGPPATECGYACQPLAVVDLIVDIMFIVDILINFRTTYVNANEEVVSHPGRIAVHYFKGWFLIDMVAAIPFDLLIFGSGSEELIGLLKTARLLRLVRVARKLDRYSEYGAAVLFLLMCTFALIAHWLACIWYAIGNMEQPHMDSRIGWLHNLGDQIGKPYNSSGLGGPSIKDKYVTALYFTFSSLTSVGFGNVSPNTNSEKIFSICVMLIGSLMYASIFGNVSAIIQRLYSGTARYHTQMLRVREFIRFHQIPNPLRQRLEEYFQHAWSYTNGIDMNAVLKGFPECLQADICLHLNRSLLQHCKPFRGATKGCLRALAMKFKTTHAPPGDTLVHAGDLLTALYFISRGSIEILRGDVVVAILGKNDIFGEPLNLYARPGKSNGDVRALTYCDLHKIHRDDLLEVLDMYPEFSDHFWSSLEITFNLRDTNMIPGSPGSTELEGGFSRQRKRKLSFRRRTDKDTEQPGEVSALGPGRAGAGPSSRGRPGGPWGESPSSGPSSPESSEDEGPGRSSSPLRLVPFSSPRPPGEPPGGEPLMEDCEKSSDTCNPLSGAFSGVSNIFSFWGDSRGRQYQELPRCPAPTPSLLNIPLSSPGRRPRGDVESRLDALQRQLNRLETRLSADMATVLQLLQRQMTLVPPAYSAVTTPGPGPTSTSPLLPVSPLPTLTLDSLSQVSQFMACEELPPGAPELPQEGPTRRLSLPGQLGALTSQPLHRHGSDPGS

The compound `N#Cc1ccc(Cn2cncc2CC[C@H]2CCN(Cc3cccc(Cl)c3)C2=O)cc1` gave an IC50 of 0.44 µM.
The figure for `N#Cc1ccc2cc1Oc1ccc3c(c1)[C@@H](CCC3)N1CC[C@H](C1)NCc1cncn1-2` is 7 µM.

One may read the IC50 as the midpoint of a concentration-inhibition curve.
